Target: His-Tagged hOGA (human O-GlcNAcase) (Homo sapiens (Human), UniProt O60502)
Assay: Human O-GlcNAcase enzyme inhibition assay (Example B01)
Type: biochemical
Settings: OGA enzyme inhibition assay; activity range classes defined in μM; read-out: OGA IC50

Chain of His-Tagged hOGA (human O-GlcNAcase) (O60502 whole entry): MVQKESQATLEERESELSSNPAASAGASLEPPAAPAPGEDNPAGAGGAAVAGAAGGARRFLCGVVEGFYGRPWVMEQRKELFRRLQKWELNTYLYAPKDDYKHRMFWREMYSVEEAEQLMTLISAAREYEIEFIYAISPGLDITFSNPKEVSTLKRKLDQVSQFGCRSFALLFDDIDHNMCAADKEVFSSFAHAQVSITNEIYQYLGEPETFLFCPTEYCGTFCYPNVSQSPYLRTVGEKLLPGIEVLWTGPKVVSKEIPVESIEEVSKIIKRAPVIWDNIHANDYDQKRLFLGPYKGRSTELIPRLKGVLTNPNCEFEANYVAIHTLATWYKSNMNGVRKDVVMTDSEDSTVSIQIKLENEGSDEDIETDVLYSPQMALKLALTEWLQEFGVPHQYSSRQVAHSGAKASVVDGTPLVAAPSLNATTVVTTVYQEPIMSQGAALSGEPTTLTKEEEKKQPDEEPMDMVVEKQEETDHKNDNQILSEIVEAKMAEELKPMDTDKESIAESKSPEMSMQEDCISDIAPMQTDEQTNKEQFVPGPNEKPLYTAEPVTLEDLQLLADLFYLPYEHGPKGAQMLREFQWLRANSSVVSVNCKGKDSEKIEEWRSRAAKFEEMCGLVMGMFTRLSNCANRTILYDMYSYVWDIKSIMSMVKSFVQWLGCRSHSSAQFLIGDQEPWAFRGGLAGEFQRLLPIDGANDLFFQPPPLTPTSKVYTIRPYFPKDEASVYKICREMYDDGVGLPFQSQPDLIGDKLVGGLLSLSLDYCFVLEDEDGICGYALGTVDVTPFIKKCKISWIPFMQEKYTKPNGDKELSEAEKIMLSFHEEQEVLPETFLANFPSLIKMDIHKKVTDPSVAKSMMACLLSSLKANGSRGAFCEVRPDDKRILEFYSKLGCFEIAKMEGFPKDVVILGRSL

Row | IC50 | Molecule
1 | 0.05 to 0.2 µM | CCOC(=O)c1ccc(N2CCN([C@@H](C)c3ccc4c(c3)OCO4)CC2)nc1 [Example 183, Ethyl (S)-6-(4-(1-(benzo[d][1,3]dioxol-5-yl)ethyl)piperazin-1-yl)nicotinate]
2 | < 0.05 µM | CC(=O)N1CCc2nc(N3CCN([C@@H](C)c4ccc5c(c4)OCO5)CC3)sc2C1 [Example 184, (S)-1-(2-(4-(1-(benzo[d][1,3]dioxol-5-yl)ethyl)piperazin-1-yl)-6,7-dihydrothiazolo[5,4-c]pyridin-5(4H)-yl)ethan-1-one]
3 | < 0.05 µM | C[C@@H](c1ccc2c(c1)OCO2)N1CCN(c2ccc(CO)cn2)CC1 [Example 185, (S)-(6-(4-(1-(benzo[d][1,3]dioxol-5-yl)ethyl)piperazin-1-yl)pyridin-3-yl)methanol]
4 | < 0.05 µM | C[C@@H](c1ccc2c(c1)OCO2)N1CCN(c2ccc(C(=O)N(C)C)cn2)CC1 [Example 187, (S)-6-(4-(1-(benzo[d][1,3]dioxol-5-yl)ethyl)piperazin-1-yl)-N,N-dimethylnicotinamide]
5 | < 0.05 µM | C[C@@H](c1ccc2c(c1)OCO2)N1CCN(c2ncc(C3(O)CCOCC3)cn2)CC1 [Example 188, (S)-4-(2-(4-(1-(benzo[d][1,3]dioxol-5-yl)ethyl)piperazin-1-yl)pyrimidin-5-yl)tetrahydro-2H-pyran-4-ol]
6 | < 0.05 µM | C[C@@H](c1ccc2c(c1)OCO2)N1CCN(c2ncc(C3(O)CCOC3)cn2)CC1 (stereo partly drawn) [Example 189, 3-(2-(4-((S)-1-(benzo[d][1,3]dioxol-5-yl)ethyl)piperazin-1-yl)pyrimidin-5-yl)tetrahydrofuran-3-ol]
7 | < 0.05 µM | C[C@@H](c1ccc2c(c1)OCO2)N1CCN(c2ccc(C(C)(C)O)cn2)CC1 [Example 190, (S)-2-(6-(4-(1-(benzo[d][1,3]dioxol-5-yl)ethyl)piperazin-1-yl)pyridin-3-yl)propan-2-ol]
8 | 0.05 to 0.2 µM | C[C@@H](c1ccc2c(c1)OCO2)N1CCN(c2ccc(Br)cn2)CC1 [Example 191, (S)-1-(1-(benzo[d][1,3]dioxol-5-yl)ethyl)-4-(5-bromopyridin-2-yl)piperazine]
9 | < 0.05 µM | CSc1ccc(N2CCN([C@@H](C)c3ccc4c(c3)OCO4)CC2)nc1 [Example 192, (S)-1-(1-(benzo[d][1,3]dioxol-5-yl)ethyl)-4-(5-(methylthio)pyridin-2-yl)piperazine]
10 | < 0.05 µM | C[C@@H](c1ccc2c(c1)OCO2)N1CCN(c2nc3c(s2)CN(S(C)(=O)=O)CC3)CC1 [Example 193, (S)-2-(4-(1-(benzo[d][1,3]dioxol-5-yl)ethyl)piperazin-1-yl)-5-(methylsulfonyl)-4,5,6,7-tetrahydrothiazolo[5,4-c]pyridine]
11 | < 0.05 µM | COc1cnc(N2CCN([C@@H](C)c3ccc4c(c3)OCO4)CC2)nc1 [Example 195, (S)-2-(4-(1-(benzo[d][1,3]dioxol-5-yl)ethyl)piperazin-1-yl)-5-methoxypyrimidine]
12 | 0.05 to 0.2 µM | (2-(4-(1-(benzo[d][1,3]dioxol-5-yl)ethyl)piperazin-1-yl)thiazol-4-yl)methanamine [Example 84]
13 | 1 to 10 µM | N-(2-(4-(1-(3,4-Dichlorophenyl)ethyl)piperazin-1-yl)thiazol-5-yl)acetamide [Example 87]
14 | < 0.05 µM | N-((2-(4-(1-(benzo[d][1,3]dioxol-5-yl)ethyl)piperazin-1-yl)thiazol-4-yl)methyl)acetamide [Example 85]

Row | Molecule | IC50
15 | C[C@@H](c1ccc2c(c1)OCO2)N1CCN(c2nc3c(s2)CNCC3)CC1 [Example 182, (S)-2-(4-(1-(benzo[d][1,3]dioxol-5-yl)ethyl)piperazin-1-yl)-4,5,6,7-tetrahydrothiazolo[5,4-c]pyridine] | < 0.05 µM
16 | CNC(=O)c1ccc(N2CCN([C@@H](C)c3ccc4c(c3)OCO4)CC2)nc1 [Example 186, (S)-6-(4-(1-(benzo[d][1,3]dioxol-5-yl)ethyl)piperazin-1-yl)-N-methylnicotinamide] | < 0.05 µM

Same assay, conditions: measured according to Example B01

Row | OGA inhibitor activity (in words) | Molecule
17 | not active as OGA inhibitors | CC(c1ccc(Cl)cc1)N1CCN(c2ccc3ccccc3n2)CC1 (stereo not drawn) [compound 5 of WO 99/21850, reference compound]
18 | not useful as OGA inhibitors | Cc1cc2ccc(C(C)N3CCN(c4ncccc4C(F)(F)F)CC3)cc2[nH]c1=O (stereo not drawn) [compound of example 56 of WO 99/21850, reference compound]
19 | not active as OGA inhibitors | COc1ccc(C(C)N2CCN(c3ccc(Br)c(OC)n3)CC2)cc1OC (stereo not drawn) [compound of example 72 of WO 2005/110982, reference compound]

Row | Molecule | OGA inhibitor activity (in words)
20 | C[C@@H](c1ccc2c(c1)OCO2)N1CCN(c2nc3c(s2)CNCC3)CC1 [Example 182, (S)-2-(4-(1-(benzo[d][1,3]dioxol-5-yl)ethyl)piperazin-1-yl)-4,5,6,7-tetrahydrothiazolo[5,4-c]pyridine] | very potent OGA inhibitors

Same assay, conditions: read-out: OGA IC50

Row | IC50 | Molecule
21 | 0.998 µM | c1cnc(N2CCN(Cc3ccc4c(c3)OCO4)CC2)nc1 [U.S. Pat. No. 3,299,067 (Example 1), reference compound]

Source: patent US10336775B2 (Asceneuron SA, priority 2014, dated 2019)
